The record followed here is patent publication US7820624B2, “Peptide ligands” (ICH Productions Limited, priority 2003, dated 2010).

Data set [1] concerns human peripheral blood monocytes. The experiment in a line: LID transfection of monocytes, EGFP by FACS and cell death. Type of data set: cell-based. The following applies: FIG. 7b; peptide F value with Lipofectin. On the procedure: (§1) Lipopolyplex (LID) transfection complexes comprising lipid (L), peptide (in the form of a peptide derivative as described above) (I) and DNA (D) were prepared. The lipid component was Lipofectin or Lipofectamine 2000 (Invitrogen Ltd, Paisley, UK), the peptide component was a synthesized peptide A to F, 6 or 6J derivative, as described in Table 7 above, and the DNA was the plasmid pEGFP-N1 (Clontech, BD Biosciences, Palo Alto, Calif.)
(§2) component (Lipofectin or Lipofectamine 2000) was maintained at a constant proportion, by weight, relative to DNA of 0.75:1. Prior to making transfection complexes, in method A the lipid component was diluted to a concentration of 15 μg per ml, the peptide was prepared at 0.1 mg/ml and the DNA (plasmid pEGFP-N1, BD Biosciences, Cowley, UK, prepared using EndoFree plasmid kit, Qiagen Ltd, Crawley, UK) was at 10 μg per ml. All dilutions were performed with OptiMEM reduced serum tissue culture medium (Life Technologies Ltd, Paisley, UK). In method B prior to making transfection complexes the lipid component was diluted to a concentration of 30 μg per ml, the peptide was prepared at 0.1 mg/ml and the DNA (plasmid pEGFP-N1, BD Biosciences, Cowley, UK, prepared using EndoFree plasmid kit, Qiagen Ltd, Crawley, UK) was at […]. All dilutions were performed in serum-free RPMI.
(§3) Transfection complexes were made by mixing the components in the order 1) lipid (50 μl) then 2) peptide (70 μl) and finally 3) DNA (50 μl), then diluting with OptiMEM or serum free RPMI, as appropriate, to a concentration relative to the DNA component of 2 μg DNA per […] (OptiMEM) or 500 μl (RPMI).
(§4) For transfection of monocytes, peripheral blood monocytes were prepared using Lymphoprep centrifugation and CD14 bead selection as described in the method for preparation of monocyte derived dendritic cells in Example 1(v) above. These cells were then transfected as described as described for dendritic cells except that transfection of the monocytes (and also of day 3 or day 4 immature dendritic cells) was carried out in solution.

Data set [2] deals with human monocyte-derived immature dendritic cells. Nature of the data set: Titration of phage clone binding to human dendritic cells. The following applies: for Phage harvested by cell lysis (pfu), human donor S / Phage harvested by cell lysis (pfu), human donor one / Phage harvested by cell lysis (pfu), human donor two: 2×10^11 phage on 5×10^4 cells, 1 hour on ice. Here is the method:
Phage were recovered and titred from each round of selection as follows. 2×10^11 Blocked phage were added to 5×10^4 blocked monocyte-derived immature dendritic cells for 1 hour on ice before washing cells three times with 0.05% Tween20-PBS, eluting phage with TBS pH5.5, and lysing cells to harvest the phage remaining bound. The numbers of phage harvested by cell lysis were calculated as plaque forming units (pfu). […] Sequencing of the bound phage shown in FIG. 1 identified the peptides as APSNSTA [SEQ. ID. NO.:15], QLLTGAS [SEQ. ID. NO.:30], TARDYRL [SEQ. ID. NO.:31], FQSQYQK [SEQ. ID. NO.:26], PLMPSLS [SEQ. ID. NO.:24], FPRAPHH [SEQ. ID. NO.:32], MASISMK [SEQ. ID. NO.:27], DWWHTSA [SEQ. ID. NO.:28], SHVKLNS [SEQ. ID. NO.:29], and SPALKTV [SEQ. ID. NO.:16].
(§5) The dendritic cells were spun down at 2000 rpm, for 5 min at 4° C., and resuspended in the phage solution, allowing the phage to bind for 1 hour on ice with occasional mixing. The cells were then washed in PBS-Tween 20 (0.05%) three times before eluting phage with 166 μl TBS pH5.5. for 10 min on ice. The eluate was neutralised with […] Tris-HCl pH 8, the cells were spun down, and the supernatant removed to be stored as eluate. The cell pellet was resuspended in 200 μl of cell lysis buffer (30 mM Tris-HCl, 1 mM EDTA pH 8.0) for 1 hour on ice, with shaking. The cell debris was removed by spinning at 5000 rpm for 5 min and the supernatant recovered. The phage in the eluate and the cell lysate were titred by measuring plaque forming units (pfu) in E. coli ER2738 as described in the NEB C7C technical bulletin.
(§6) The titration of phage clone binding was carried out using human and mouse dendritic cells, with binding to plastic as a control. The human cells were obtained from donors as stated below.

A short description of data set [3]: Titration of phage clone binding to blocked plastic (control). Here is the method:
as §5, §6

For data set [4], the system named is human monocyte-derived immature dendritic cells. The experiment in a line: Whole cell flow cytometry (FACS) of phage clone binding. The settings on record: day 4 cells, several donors; versus phage clone with no insert. On the procedure: 5×10^4 Dendritic cells and 2×10^11 of an individual purified phage clone were each blocked at 4° C. for 30 mins in 1 ml MBSA (2% Marvel, 5% BSA in PBS), with mixing on a turntable. The dendritic cells were spun down at 2000 rpm, a gentle centrifugation to pellet cells without lysing them, for 5 min at 4° C., and the pellet resuspended in the blocked phage solution. The mixture was held on ice for 30 min to allow the phage to bind, before spinning down the cells, removing the supernatant and washing the cells with 1 ml 1% BSA, 0.05% Tween20-PBS. The cells were spun again, the supernatant removed, and the cells fixed in 1 ml 1% paraformaldehyde for 30 min on ice. […] The cells were incubated with the antibody on ice for 30 min before spinning down, washing twice in 0.05% Tween20, 1% BSA PBS, resuspending in […] and measuring the percentage cells positive for FITC by FACS analysis.
Alternatively, 5×10^4 dendritic cells were mixed with 2×10^11 of individual phage clones as described for panning of the phage library. The mixture of phage and DC suspensions was kept on ice for 30 min before cells were centrifuged to remove the supernatant and washed with 1 ml 1% BSA, 0.05% Tween 20-PBS. The cells were again pelleted by centrifugation, then fixed for flow cytometry analysis by resuspending in 1 ml of 1% paraformaldehyde for 30 min on ice. […] The cells were incubated with the antibody on ice for 30 min then pelleted by centrifugation, washed twice in 0.05% Tween 20, 1% BSA PBS and resuspended in 200 μl PBS. The percentage of FITC-positive cells was determined by flow cytometry using a Epics XL flow cytometer (Beckman Coulter, High Wycombe, UK.).

Data set [5] shares this test system. Nature of the data set: LID (lipid-peptide-DNA) transfection of immature dendritic cells, EGFP by FACS and 7AAD cell death. Type of data set: cell-based. Also on record: Transfection efficiency, % EGFP positive cells: concentration or dose not given beside the values. The following applies: for Percentage of dendritic cells transfected / Transfection efficiency, % positive cells: day 4 cells; for Percentage of dendritic cells transfected: LID with lipofectin (FIG. 4b). On the procedure: as §1
In the transfection complex, peptide component to DNA charge ratios (+/−) were used at 1.5:1, 3:1 and 7:1. The lipid
as §2, §3
Immature day 6 dendritic cells, obtained as described in Example 1(v) above, were plated into a 48 well plate at 5×10^4 cells per well in complete media and allowed to settle for 3 hours at 37° C. 300 μl or 500 μl (as appropriate) of the transfection complex obtained as described above was added to each well. The transfection complex was applied to cells within 5 minutes of preparation. Transfection incubations were performed at 37° C. for 4 hours, after which the medium was replaced with complete medium with cytokines for 24 hours. Cells were harvested by scraping, spun down and resuspended in 300 μl PBS for FACS analysis to determine the percentage of cells positive for the reporter gene EGFP (Enhanced Green Fluorescent Protein). Each transfection was performed in triplicate wells.
as §4

Data set [6] deals with mouse dendritic cells. The experiment in a line: Titration of phage clone binding to mouse dendritic cells. The following applies: 2×10^11 phage. Here is the method:
as §5, §6

The mark [7] stands for this setting: lipofectin, lipid:DNA 0.75:1, peptide:DNA 7:1 (FIG. 5a).

Entries after “also recorded” stand apart in the source; their conditions may differ.

In data set [1], “DWWHTSA (Synthetic peptide binding to dendritic cells)” showed a Cell death of 25%. In addition, in data set [2], the “Phage harvested by cell lysis (pfu), human donor S” value (shortened to “Phage harvested … human donor S”) is 8020 pfu ×10^3; the “Phage harvested by cell lysis (pfu), human donor one” value (shortened to “Phage harvested … human donor one”) was determined as 2980 pfu ×10^3; the “Phage harvested by cell lysis (pfu), human donor two” value (“Phage harvested … human donor two” for short) worked out at 1380 pfu ×10^3. Also, in data set [3], the “Phage titre (pfu), plastic” value is 1180 pfu ×10^3. The “Percentage of cells positive for bound phage (FITC) by FACS” value in data set [4] was “binding to a higher percentage of cells than a phage clone bearing no insert; also recorded: bind to dendritic cells in highest amounts; also recorded: binding to dendritic cells in highest amounts”. Further, the “Percentage of dendritic cells transfected” value in data set [5] was “less than 1%”. Besides, the “Phage titre (pfu), mouse DCs” value in data set [6] is on record as 3240 pfu ×10^3.
Turning to “FQSQYQK (Synthetic peptide binding to dendritic cells)”, in data set [2], the “Phage harvested … human donor S” value is on record as 3060 pfu ×10^3; the “Phage harvested … human donor one” value turned out to be 1000 pfu ×10^3; the “Phage harvested … human donor two” value was determined as 360 pfu ×10^3. Also, the “Phage titre (pfu), plastic” value in data set [3] is on record as 1680 pfu ×10^3. In addition, in data set [4], the “Percentage of cells positive for bound phage (FITC) by FACS” value was “binding to a higher percentage of cells than a phage clone bearing no insert”. Besides, in data set [6], the “Phage titre (pfu), mouse DCs” value is reported as 3260 pfu ×10^3.
For “MASISMK (Synthetic peptide binding to dendritic cells)”, in data set [2], the “Phage harvested … human donor S” value came out at 9440 pfu ×10^3; the “Phage harvested … human donor one” value stood at 15220 pfu ×10^3; the “Phage harvested … human donor two” value turned out to be 7780 pfu ×10^3. In addition, the “Extent of phage clone binding in titrations” value in data set [2] (all titrations, including mouse dendritic cells, versus phage with no insert) is “bound in highest numbers in all titrations”. In addition, the “Phage titre (pfu), plastic” value in data set [3] worked out at 2380 pfu ×10^3. Moreover, the “Percentage of cells positive for bound phage (FITC) by FACS” value in data set [4] is given as “a higher percentage of cells positive for bound phage than the controls with no insert”. Further, the “Percentage of dendritic cells transfected” value in data set [5] is given as “approximately half that value”. Further, the “Transfection efficiency, % positive cells” value in data set [5] (setting [7]) is given as “about 7%”. In addition, in data set [6], the “Phage titre (pfu), mouse DCs” value worked out at 6380 pfu ×10^3.
As to “PMLPSLS (Synthetic peptide binding to dendritic cells)”, in data set [2], the “Phage harvested … human donor S” value is on record as 560 pfu ×10^3; the “Phage harvested … human donor one” value was found to be 40 pfu ×10^3; the “Phage harvested … human donor two” value worked out at 40 pfu ×10^3. For the same substance, the “Phage titre (pfu), plastic” value in data set [3] stood at 80 pfu ×10^3. Moreover, the “Percentage of cells positive for bound phage (FITC) by FACS” value in data set [4] is “a higher percentage of cells positive for bound phage than the controls with no insert”. Also, the “Phage titre (pfu), mouse DCs” value in data set [6] amounted to 1520 pfu ×10^3.
“QLLTGAS (Synthetic peptide binding to dendritic cells)”: in data set [2], the “Phage harvested … human donor S” value was determined as 220 pfu ×10^3; the “Phage harvested … human donor one” value is given as 380 pfu ×10^3; the “Phage harvested … human donor two” value came to 960 pfu ×10^3. Also, in data set [3], the “Phage titre (pfu), plastic” value worked out at 220 pfu ×10^3. Also, the “Percentage of cells positive for bound phage (FITC) by FACS” value in data set [4] was “a higher percentage of cells positive for bound phage than the controls with no insert; also recorded: binds to marginally more cells than the others”. In data set [6], the “Phage titre (pfu), mouse DCs” value is 20 pfu ×10^3.
As for RRETAWA [peptide 6, reference compound], the “Transfection efficiency, % EGFP positive cells” value in data set [5] (day 3 dendritic cells (FIG. 6a)) is given as 14%. The “Transfection efficiency, % positive cells” value in data set [5] (Lipofectamine 2000) was 3%; in data set [5] (setting [7]) it was 2%.
Consider “SPALKTV (Synthetic peptide binding to dendritic cells)”, for which, in data set [2], the “Phage harvested … human donor S” value turned out to be 6960 pfu ×10^3 and the “Phage harvested … human donor one” value is 120 pfu ×10^3. The “Phage titre (pfu), plastic” value in data set [3] is recorded as 220 pfu ×10^3. Also, in data set [4], the “Percentage of cells positive for bound phage (FITC) by FACS” value is reported as “all clones except for one”. Moreover, the “Phage titre (pfu), mouse DCs” value in data set [6] turned out to be 600 pfu ×10^3.
Regarding “SQKNPQM (Synthetic peptide binding to dendritic cells)”, the “Percentage of cells positive for bound phage (FITC) by FACS” value in data set [4] is given as “binding to a higher percentage of cells than a phage clone bearing no insert”.
Same read-out and setting: under “STPPNTT (Synthetic peptide binding to dendritic cells)” stands “a higher percentage of cells positive for bound phage than the controls with no insert”.
For the substance “TARDYRL (Synthetic peptide binding to dendritic cells)”, in data set [2], the “Phage harvested … human donor S” value came out at 940 pfu ×10^3 and the “Phage harvested … human donor two” value turned out to be 180 pfu ×10^3. For the same substance, the “Percentage of cells positive for bound phage (FITC) by FACS” value in data set [4] is “a higher percentage of cells positive for bound phage than the controls with no insert”.
